Measurements: paper PMC9136103 (The Journal of Biological Chemistry, 2022)
Values belong to the compound of their own block, whether it stands above or below them.

Tests used:
[1] = molecular target: T1, human ornithine aminotransferase (hOAT) (Homo sapiens, UniProt P04181); test: crystal structure by soaking (~[…] Å); stopped-flow kinetics Kd; assay type: biochemical
T1 construct: gene OAT; t-hOAT expressed as MBP fusion, MBP tag removed
T1 sequence (P04181 26-439 limits assumed): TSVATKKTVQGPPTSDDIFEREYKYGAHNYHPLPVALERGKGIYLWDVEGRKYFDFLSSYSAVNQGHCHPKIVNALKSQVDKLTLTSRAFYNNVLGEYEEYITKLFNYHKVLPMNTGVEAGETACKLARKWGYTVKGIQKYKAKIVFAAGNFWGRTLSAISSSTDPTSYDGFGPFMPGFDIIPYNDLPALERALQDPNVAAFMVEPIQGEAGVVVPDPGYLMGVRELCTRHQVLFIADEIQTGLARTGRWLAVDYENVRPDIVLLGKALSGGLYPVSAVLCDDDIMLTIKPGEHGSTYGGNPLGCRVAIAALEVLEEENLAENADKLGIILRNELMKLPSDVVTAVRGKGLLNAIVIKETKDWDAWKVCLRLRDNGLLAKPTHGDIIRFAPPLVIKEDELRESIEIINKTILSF

[2] = molecular target: T1, human ornithine aminotransferase (hOAT); test: stopped-flow transient-state kinetics, purified enzyme (Kd not determined); assay type: biochemical
[3] = molecular target: T1, human ornithine aminotransferase (hOAT); test: crystal structure by soaking (~[…] Å); UV-Vis titration Kd; assay type: binding
[4] = molecular target: T1, human ornithine aminotransferase (hOAT); test: stopped-flow transient-state kinetics, purified enzyme; assay type: biochemical; conditions: read-out: Dissociation constant (Kd)

Kd [1]: 735 ± 78 µM
Structure (SMILES): NCCCCC(=O)O [AVA, 5-aminovaleric acid]

Structure (SMILES): NCC[C@H](N)C(=O)O [DABA, L-2,4-diaminobutyric acid]
klim/Kd [2]: 0.249 ± 0.006 M⁻¹ s⁻¹

Kd [3]: 110 ± 15 µM
Structure (SMILES): NCCCC(=O)O [GABA, γ-aminobutyric acid]

Kd [4]: 4.7 ± 0.29 mM
Structure (SMILES): NCCC[C@H](N)C(=O)O [L-Orn, L-ornithine]
